Experimental data from US20090011951A1, “Method of Gene Screening With Yeast Having Ergosterol Synthase Undergoing Inducible Expression” (priority 2004, published 2009).

Columns and labels:
yeast = conditions: known action; cited from earlier work
[1] = tested on: yeast (Saccharomyces cerevisiae) that inducibly expresses ERG6; assay: Cycloheximide sensitivity of the strain that inducibly expresses ERG6; format: cell-based; conditions: 30° C., 2 days, various concentrations
Description: The following experiments were performed to confirm a difference in drug resistance of yeast that inducibly expresses ergosterol depending on presence or absence of induction.
It was confirmed that the drug sensitivity was increased by turning off the expression of ergosterol.

Structure (SMILES)	growth inhibitory action against yeast (yeast)	cycloheximide sensitivity ([1]; galactose medium (ERG6 induced))	cycloheximide sensitivity ([1]; glucose medium (ERG6 repressed))
CN(Cc1cnc2nc(N)nc(N)c2n1)c1ccc(C(=O)N[C@@H](CCC(=O)O)C(=O)O)cc1 [Methotrexate]	has a growth inhibitory action against yeast	–	–
C[C@@H]1C[C@@H]([C@H](O)CC2CC(=O)NC(=O)C2)C(=O)[C@@H](C)C1 [cycloheximide]	–	equal to that of a pdr1 pdr3-disrupted stain (ERG6 strain)	equal to that of a pdr1 pdr3 erg6-disrupted strain
